We go through 5 compounds from US20220363689A1, “INHIBITOR OF BTK AND MUTANTS THEREOF” (Newave Pharmaceutical Inc., priority 2019, published 2022).

Read-outs that look alike come from different tables or passages of the source. Bounds are passed on as bounds.

One may read the AUC as the area under the concentration-time curve, a measure of exposure.

Data set [1] has as its target C4815S BTK enzyme (Homo sapiens, UniProt Q06187, C481S). The data set is described as follows: Reversibility of binding to C481S BTK enzyme. It is filed as biochemical. The note with it: Cysteine residue not available for covalent binding.
The target in data set [2] is T1, WT BTK (Homo sapiens, UniProt Q06187). As to the kind of experiment: In vitro dialysis assay (irreversibility assay), WT BTK. It is filed as biochemical. The note with it: reversible or irreversible/covalent inhibition after 24 h dialysis. The procedure: The compound-enzyme complex was dialyzed against the same buffer supplemented with 40 mM ATP for 24 hr. Cumulative dialysis factor>160,000×. After dialysis, the BTK activity was measured in the presence […] and 1 mM substrate peptide and compared to that in non-dialyzed samples. Assay buffer: 100 mM HEPES, pH7.5; […]; 5 mM MgCl2; 1 mM DTT. In this study, Ibrutiib (a FDA approved irreversible BTK inhibitor) was used as a positive control and Saurosporine (a reversible BTK inhibitor) was used as a negative control.

The conditions of data set [3]: rats, treatment for longer than 7 days; cited from earlier work.
The conditions of data set [4]: Phase I clinical trials, formulations containing GDC-0853; cited from earlier work.
For data set [5] the following is noted: mice, even at higher doses; cited from earlier work.
For data set [6] the following is noted: dogs, even at higher doses; cited from earlier work.
Data set [7] has as its system basophil activation, B cell receptor activation, and constitutive p-BTK activity in whole blood lysates. The note with it: read-out: IC50s for basophil activation, B cell receptor activation, and constitutive p-BTK activity; cited from earlier work.
The subject of data set [8] is liver cancer cell line HepG2. As to the kind of experiment: HepG2 in vitro liver toxicity assay (ATPlite). The class given is cell-based. To be noted: another experiment, about 72 hours incubation, read-out: HepG2 IC50 (another experiment). The procedure:
Cell antiproliferation is assayed by PerkinElmer ATPlite™ Luminescence Assay System. Briefly, the liver cancer cell line HepG2 are plated at a density of about 1×10^4 cells per well in Costar 96-well plates, and are incubated with different concentrations of compounds for about 72 hours in medium supplemented with 5% FBS. One lyophilized substrate solution vial is then reconstituted by adding 5 mL of substrate buffer solution, and is agitated gently until the solution is homogeneous. About 50 μL of mammalian cell lysis solution is added to 100 μL of cell suspension per well of a microplate, and the plate is shaken for about five minutes in an orbital shaker at −700 rpm. This procedure is used to lyse the cells and to stabilize the ATP. Next, 50 μL substrate solution is added to the wells and microplate is shaken for five minutes in an orbital shaker at −700 rpm. Finally, the luminescence is measured by a PerkinElmer TopCount® Microplate Scintillation Counter. Such assays, carried out with a range of doses of test compounds, allow the determination of the cellular anti-antiproliferative IC50 of the compounds of the present invention.
In general terms: Cellular ATP, detected with luciferase, serves as a proxy for viable cell number.

The nature of data set [9]: Mice PK study. The class given is in vivo. The note with it: plasma, CD-1 mouse, po, 25 mg/kg. The procedure:
The pharmacokinetics of compounds were evaluated in CD-1 mouse via Intravenous and Oral Administration. The IV dose was administered as a slow bolus in the Jugular vein, and oral doses were administered by gavage. The formulation for IV dosing is 5% DMSO in 20% HPBCD in water, and the PO formulation is 2.5% DMSO, 10% EtOH, 20% Cremphor EL, 67.5% D5W. The PK time point for the IV arm was 5, 15, 30 min, 1, 2, 4, 6, 8, 12, 24 hours post dose, and for PO arm was 15, 30 min, 1, 2, 4, 6, 8, 12, 24 hours post dose. Approximately 0.03 mL blood was collected at each time point. Blood of each sample was transferred into plastic micro centrifuge tubes containing EDTA-K2 and plasma was collected within 15 min by centrifugation at 4000 g for 5 minutes in a 4° C. centrifuge. Plasma samples were stored in polypropylene tubes. The samples were stored in a freezer at −75±15° C. prior to analysis. Concentrations of compounds in the plasma samples were analyzed using a LC-MS/MS method. WinNonlin (Phoenix™, version 6.1) or other similar software was used for pharmacokinetic calculations. The following pharmacokinetic parameters were calculated, whenever possible from the plasma concentration versus time data: IV administration: C0, CL, Vd, T1/2, AUCinf, AUClast, MRT, Number of Points for Regression; PO administration: Cmax, Tmax, T1/2, AUCinf, AUClast, F %, Number of Points for Regression. The pharmacokinetic data was described using descriptive statistics such as mean, standard deviation. Additional pharmacokinetic or statistical analysis was performed at the discretion of the contributing scientist, and was documented in the data summary. For comparison purpose, the PK results of oral dosing of po, 25 mg/kg of Acalbrutinib, a FDA approved BTK inhibitor, were obtained using the same methods and shown in the Table below.

Data set [10] concerns the target T1, WT BTK. As to the kind of experiment: Caliper-based kinase assay, WT BTK. The class given is biochemical. The note with it: 0.5 nM enzyme, ATP 16 μM, room temperature 3 h; read-out: WT BTK IC50 (nM) (irreversible inhibition). The procedure: (§1) A Caliper-based kinase assay (Caliper Life Sciences, Hopkinton, Mass.) was used to measure inhibition of WT and […] Btk kinase activity of a compound of the present disclosure. […] The reaction was then terminated with EDTA, final concentration 20 mM and the phosphorylated reaction product was quantified on a Caliper Desktop Profiler (Caliper LabChip 3000).

The target in data set [11] is C481S Btk (Homo sapiens, UniProt Q06187, C481S). As to the kind of experiment: Caliper-based kinase assay, C481S BTK. It is filed as biochemical. To be noted: 0.5 nM enzyme, ATP 16 μM, room temperature 3 h; read-out: C481S BTK IC50 (nM) (reversible inhibition). The procedure:
as §1

T1 sequence (Q06187 whole entry): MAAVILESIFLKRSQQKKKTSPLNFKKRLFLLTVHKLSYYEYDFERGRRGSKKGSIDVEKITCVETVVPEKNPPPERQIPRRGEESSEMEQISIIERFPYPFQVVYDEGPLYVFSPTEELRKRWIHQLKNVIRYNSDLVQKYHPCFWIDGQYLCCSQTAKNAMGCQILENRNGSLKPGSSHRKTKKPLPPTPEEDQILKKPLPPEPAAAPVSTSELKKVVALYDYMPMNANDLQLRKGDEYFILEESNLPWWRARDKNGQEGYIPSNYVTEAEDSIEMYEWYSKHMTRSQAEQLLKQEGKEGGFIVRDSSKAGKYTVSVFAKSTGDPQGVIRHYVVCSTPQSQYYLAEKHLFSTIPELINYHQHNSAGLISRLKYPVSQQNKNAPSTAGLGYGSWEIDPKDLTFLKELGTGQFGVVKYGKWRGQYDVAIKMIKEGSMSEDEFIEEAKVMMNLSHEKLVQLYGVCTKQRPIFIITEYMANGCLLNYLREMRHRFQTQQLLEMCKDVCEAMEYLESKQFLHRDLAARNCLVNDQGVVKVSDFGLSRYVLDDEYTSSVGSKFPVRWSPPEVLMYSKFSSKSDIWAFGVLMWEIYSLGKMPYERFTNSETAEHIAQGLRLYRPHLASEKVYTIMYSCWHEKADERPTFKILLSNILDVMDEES
C481S Btk, sequence (Q06187 whole entry C481S): as the sequence (Q06187 whole entry) above, with C481S counted along it
C4815S BTK enzyme, sequence (Q06187 whole entry C481S): as the sequence (Q06187 whole entry) above, with C481S counted along it

`C=CC(=O)Nc1cc(Nc2nc(-c3ccnc(N4CCn5c(cc6c5CC(C)(C)C6)C4=O)c3CO)cn(C)c2=O)ccc1N1CCN(C)CC1` [Example 2, N-(5-((6-(2-(7,7-dimethyl-1-oxo-1,3,4,6,7,8-hexahydro-2H-cyclopenta[4,5]pyrrolo[1,2-a]pyrazin-2-yl)-3-(hydroxymethyl)pyridin-4-yl)-4-methyl-3-oxo-3,4-dihydropyrazin-2-yl)amino)-2-(4-methylpiperazin-1-yl)phenyl)acrylamide]: the “Mode of binding to C481S BTK” value in [1] was “reversibly bind”. The “Conclusion (WT BTK)” value in data set [2] is recorded as “irreversible/covalent inhibition”.
Regarding `C[C@H]1CN(C2COC2)CCN1c1ccc(Nc2cc(-c3ccnc(N4CCn5c(cc6c5CC(C)(C)C6)C4=O)c3CO)cn(C)c2=O)nc1` [GDC-0853], the Pancreatic toxicity result was “pancreatic toxicity” in data set [3], “does not occur” in data set [5] and “does not occur” in data set [6]. In data set [4], the Tolerability entry was “well-tolerated”. Further, in [2], the “Conclusion (WT BTK)” value is given as “Reversible”. The IC50 in data set [7] is 2 to 9 nM.
Take `CC#CC(=O)N1CCC[C@H]1c1nc(-c2ccc(C(=O)Nc3ccccn3)cc2)c2c(N)nccn12` [Acalabrutinib, reference compound]: in [8] (Homo sapiens, HepG2), the IC50 is above 40000 nM. For the same compound, the AUC in data set [9] amounted to 1450 ng·h/mL. Moreover, in data set [9] (read-out: t ½ (converted)), the half-life was 1.1 h.
As for `C=CC(=O)Nc1cc(Nc2nc(-c3ccnc(N4CCc5c(sc6c5CCCC6)C4=O)c3CO)cn(C)c2=O)ccc1N1CCN(C2CCOCC2)C[C@@H]1C` [Example 56, N-[5-([6-[3-(hydroxymethyl)-2-[6-oxo-8-thia-5-azatricyclo[7.4.0.0^[2,7]]trideca-1(9), 2(7)-dien-5-yl]pyridin-4-yl]-4-methyl-3-oxopyrazin-2-yl]amino)-2-[(2S)-2-methyl-4-(oxan-4-yl)piperazin-1-yl]phenyl]prop-2-enamide], the “Conclusion (WT BTK)” value in [2] is “Irreversible/covalent inhibition”. The IC50 in data set [8] turned out to be 26000 nM; in data set [10], 0.058 nM.
As for `C=CC(=O)Nc1cc(Nc2nc(-c3ccnc(N4CCn5c(cc6c5CC(C)(C)C6)C4=O)c3C)cn(C)c2=O)ccc1N1CCC(N2CCOCC2)CC1C` [Example 17, N-(5-[[6-(2-[4,4-dimethyl-9-oxo-1,10-diazatricyclo[6.4.0.0^[2,6]]dodeca-2(6),7-dien-10-yl]-3-methylpyridin-4-yl)-4-methyl-3-oxopyrazin-2-yl]amino]-2-[(2S)-2-methyl-4-(morpholin-4-yl)piperidin-1-yl]phenyl)prop-2-enamide], the IC50 stood at 7.1 nM in data set [11] and 0.1 nM in [10]. The “Conclusion (WT BTK)” value in data set [2] is listed as “Irreversible/covalent inhibition”.
